Patent US10967035B1, “Aquaculture feed additive” (HP Ingredients Corp., priority 2020, dated 2021)

What was measured:
[1] = system: Piscirickettsia salmonis strain type LF-89; type: cell-based
CD8+ = assay: RT-qPCR of CD8+ expression in anterior kidney of fish fed supplemented diets; type: in vivo, rainbow trout; conditions: diet 15 days
Experimental: (§1) We compared several aquaculture diets suitable for use in commercial aquaculture. The standard diet was […] commercially available from Salmones […]., Los Angeles, Chile. […] Each diet was administered to each of three (3) cages for 15 days. […] We extracted total RNA from each sample, and then quantified the expression of IL-12 and CD8^+ using real-time quantitative PCR, according to the standardized protocols of the Aquatic Organisms Biotechnology Lab of the Universidad Austral de Chile.

IL-12 = assay: RT-qPCR of IL-12 expression in anterior kidney of fish fed supplemented diets; type: in vivo, rainbow trout; conditions: diet 15 days; NC 0.5 kg/ton, AP 1 kg/ton of feed
Experimental: as §1

Row | Structure (SMILES) | inhibitory effect on bacterial growth ([1]; at the analyzed concentrations (0.98 to 500)) | CD8+ expression in anterior kidney compared to control group (CD8+; NC 0.5 kg/ton, AP 1 kg/ton of feed) | stimulation of the immune activity markers compared to control (CD8+; in vivo pilot test) | IL-12 expression in anterior kidney compared to control group (IL-12) | mean inhibition in bacterial growth ([1]; 64, 32 and 16 μg/mL)
1 | C=C1CC[C@@H]2[C@](C)(CO)[C@H](O)CC[C@@]2(C)[C@@H]1C/C=C1/C(=O)OC[C@H]1O [AP, andrographolide] | no significant differences in the inhibitory effect | increase the expression of CD8+ | 2.0 | depress the expression of IL-12 | –
2 | CS(=O)(=O)c1ccc([C@@H](O)[C@@H](CF)NC(=O)C(Cl)Cl)cc1 [florfenicol] | – | – | – | – | 5 fold
